Values quoted from earlier work, collected in patent publication US6369065B1, “CD40 signal blocking agent” (UCB S.A., priority 2000, dated 2002).

System: aorta lesions
Settings: rabbit models of arteriosclerosis

Compound: CCCCCN(CCO)c1cc(N2CCCCC2)nc2ncnn12 [AR12463]
- progress of aorta lesions: suppress the progress of aorta lesions
